Test results taken from paper PMC8587869, “Evaluation of the Inhibitory Effects of Pyridylpyrazole Derivatives on LPS-Induced PGE2 Productions and Nitric Oxide in Murine RAW 264.7 Macrophages” (Molecules, 2021).

Experiments:
Assay type in all cases: cell-based, murine
[1] = MTT assay for cell viability in RAW 264.7 macrophages; settings: mouse, murine RAW 264.7 macrophages, mean ± SD of three experiments
Procedure: (§1) Before screening the PGE2 and NO production inhibitory effects of the compounds, the compounds’ cytotoxicity was evaluated at 1 and 10 μM concentrations to make sure that the tested concentrations are safe enough and non-cytotoxic to avoid misleading results. All compounds were non-cytotoxic at 1 μM concentration, while by increasing concentration to 10 μM, all the target compounds except 1f, 1k, and 1m started showing cytotoxicity. […] The piperidinyl and the morpholino moieties seem to be unfavorable to avoid cytotoxicity in this series of compounds. page 9: Biological evaluation Cell culture and sample treatment, nitrite determination, PGE2 assay, and MTT assay for cell viability have been carried out following the reported procedures [Bioorg. Med. Chem. Lett. 2014, 24, 571 & Eur. J. Pharmacol. 2008, 584, 175]. Western blot RAW 264.7 macrophage cells were re-suspended in PRO-PREPTM protein extraction solution (Intron Biotechnology, Seoul, Korea) and incubated with 20 min at 4 °C. The cell debris was removed by microcentrifugation, and the supernatants were quickly frozen. The protein concentration was determined using the Bio-Rad protein assay reagent according to the manufacture’s instruction. Cellular proteins were electroblotted onto a PVDF membrane following separation on 8-12% SDS-polyacrylamide gel electrophoresis. The immunoblot was incubated with blocking solution (5% skimmed milk) at room temperature for 1 h, followed by incubation overnight with a primary antibody at 4 °C. The blots were washed four times with a Tween 20/Tris-buffered saline (T/TBS) and incubated with a 1:2000 dilution of horseradish peroxidase-conjugated secondary antibody for 2 h at room temperature. The blots were again washed three times with T/TBS, and then developed by enhanced chemiluminescence (GE healthcare, WI, USA). Page 9 of 55

[2] = tested on: LPS-induced PGE2 production; experiment: Inhibition of LPS-induced PGE2 production in RAW 264.7 macrophages; settings: for inhibition of PGE2 production (in words): 2.5, 5, 10 μM
Procedure: (§2) Upon confirming the non-cytotoxicity of 10 μM concentration of these three derivatives against murine RAW 264.7 macrophages induced by LPS, compounds 1f, 1k, and 1m were tested for inhibitory effect against LPS-induced PGE2 production together with checking their cell viability. […] The fluorine atom can also add some more merits such as formation of an additional hydrogen bond with a hydrogen bond donor in the target protein and stronger hydrophobic interaction by fluorophenyl compared with unsubstituted phenyl. […] Moreover, 1f and 1m were evaluated at 1 and 10 μM for inhibitory effects on LPS-induced NO production.
(§3) Cell culture and sample treatment, nitrite determination, PGE2 assay, and MTT assay for cell
(§4) viability have been carried out following the reported procedures [Bioorg. Med. Chem. Lett. […]

RAW 264.7 macrophages [3] = experiment: MTT assay for cell viability in RAW 264.7 macrophages; settings: 10 μM; RAW 264.7 macrophages
Procedure: as §1

phosphorylation of p38 = experiment: Western blot of p-p38 in LPS-induced RAW 264.7 macrophages
Procedure: (§5) Furthermore, the most promising compound 1m was chosen for a more extensive investigation of its molecular mechanism(s) of action. It was tested for inhibitory effects on COX-2 and iNOS protein expressions (Figure 4).
(§6) Cell culture and sample treatment, nitrite determination, PGE2 assay, and MTT assay for cell viability have been carried out following the reported procedures [Bioorg. Med. Chem. Lett.
(§7) RAW 264.7 macrophage cells were re-suspended in PRO-PREPTM protein extraction solution (Intron Biotechnology, Seoul, Korea) and incubated with 20 min at 4 °C. The cell debris was removed by microcentrifugation, and the supernatants were quickly frozen. The protein concentration was determined using the Bio-Rad protein assay reagent according to the manufacture’s instruction. Cellular proteins were electroblotted onto a PVDF membrane following separation on 8-12% SDS-polyacrylamide gel electrophoresis. The immunoblot was incubated with blocking solution (5% skimmed milk) at room temperature for 1 h, followed by incubation overnight with a primary antibody at 4 °C. The blots were washed four times with a Tween 20/Tris-buffered saline (T/TBS) and incubated with a 1:2000 dilution of horseradish peroxidase-conjugated secondary antibody for 2 h at room temperature. The blots were again washed three times with T/TBS, and then developed by enhanced chemiluminescence (GE

RAW 264.7 macrophages [4] = experiment: MTT assay for cell viability in RAW 264.7 macrophages; settings: 2.5, 5, 10 μM; LPS-induced RAW 264.7 macrophages
iNOS protein expression = experiment: Western blot of iNOS protein expression in LPS-induced RAW 264.7 macrophages; settings: especially at 10 µM
Procedure: as §5, §6, §7

[5] = tested on: LPS-induced NO production; experiment: Inhibition of LPS-induced NO production (nitrite determination) in RAW 264.7 cells; settings: LPS-induced RAW 264.7 cells; for inhibition at 1 µM / inhibition at 10 µM: Mus musculus, read-out: Inhibition Rate (%) of NO production; for inhibition at 1 µM: RAW264.7, 1 μM; for inhibition at 10 µM: RAW264.7, 10 μM
Procedure: as §2, §3, §4

COX-2 protein expression = experiment: Western blot of COX-2 protein expression in LPS-induced RAW 264.7 macrophages; settings: especially at 10 µM
Procedure: as §5, §6, §7

[6] = LPS-induced RAW 264.7 macrophages
[7] = Mus musculus, RAW264.7, LPS-induced RAW 264.7 macrophages

Q: Which viability at 1 µM [1] does the source give for `CCN1CCN(CC(=O)Nc2cccc(-n3cc(-c4ccncc4)c(-c4ccc(Cl)c(OC)c4)n3)c2)CC1` [Compound 1d] here?
A: 75 ± 2.9%

Q: And the viability at 10 µM [1]?
A: 3 ± 0.4%

Q: Which results are given for `COc1cc(-c2nn(-c3cccc(NC(=O)CCN4CCCCC4)c3)cc2-c2ccncc2)ccc1Cl` [Compound 1g]?
A: viability at 1 µM [1]: 87 ± 3.8%; viability at 10 µM [1]: 5 ± 1.1%

Q: With `COc1cc(-c2nn(-c3cccc(NC(=O)CCN4CCN(Cc5ccc(F)cc5)CC4)c3)cc2-c2ccncc2)ccc1Cl` [Compound 1m] as the compound, how does the “inhibition of PGE2 production (in words)” value [2, 6] read?
A: good inhibition values

Q: What about the IC50 [2, 7] of the same compound?
A: 1.1 µM

Q: What about the inhibition at 2.5 µM ([2]; Mus musculus, RAW264.7, 2.5 μM, LPS-induced RAW 264.7 macrophages) of the same compound?
A: 67%

Q: And the inhibition at 10 µM [2, 7]?
A: 84.9%

Q: What about the viability at 1 µM [1] of the same compound?
A: 90 ± 4.1%

Q: What about the viability at 10 µM [1] of the same compound?
A: 97 ± 3.9%

Q: And the “cytotoxicity (in words)” value (RAW 264.7 macrophages [3])?
A: non-cytotoxic

Q: What about the “effect on phosphorylation of p38 (in words)” value (phosphorylation of p38) of the same compound?
A: markedly suppressed

Q: And the “cytotoxicity (in words), LPS-induced RAW 264.7 cell viability” value (RAW 264.7 macrophages [4])?
A: no cytotoxicity

Q: And the “effect on iNOS protein expression (in words)” value (iNOS protein expression)?
A: concentration-dependent inhibitory effect

Q: And the “Inhibition Rate (%) of NO production” value ([5]; 10 μM)?
A: 37.19 ± 3.4%

Q: And the inhibition at 1 µM [5]?
A: 0%

Q: And the inhibition at 10 µM [5]?
A: 37%

Q: And the “effect on COX-2 protein expression (in words)” value (COX-2 protein expression)?
A: concentration-dependent inhibitory effect

Q: With `COc1cc(-c2nn(-c3cccc(NC(=O)CN4CCN(c5ccccc5)CC4)c3)cc2-c2ccncc2)ccc1Cl` [Compound 1e] as the compound, how does the viability at 1 µM [1] read?
A: 87 ± 4.1%

Q: And the viability at 10 µM [1]?
A: 65 ± 4.1%

Q: With `COc1cc(-c2nn(-c3cccc(NC(=O)CCN4CCN(C)CC4)c3)cc2-c2ccncc2)ccc1Cl` [Compound 1i] as the compound, how does the viability at 1 µM [1] read?
A: 99 ± 3.4%

Q: And the viability at 10 µM [1]?
A: 5 ± 1.8%

Q: For `CC(=N)NCCCC[C@H](N)C(=O)O` [L-NIL, reference compound], which “Inhibition Rate (%) of NO production” value ([5]; 1 μM) is on record?
A: 3.9 ± 2.1%

Q: And the “Inhibition Rate (%) of NO production” value ([5]; 10 μM)?
A: 31.32 ± 2.9%

Q: With `COc1cc(-c2nn(-c3cccc(NC(=O)CCN4CCOCC4)c3)cc2-c2ccncc2)ccc1Cl` [Compound 1h] as the compound, how does the viability at 1 µM [1] read?
A: 99 ± 2.8%

Q: What about the viability at 10 µM [1] of the same compound?
A: 75 ± 1.7%

Q: Which results are given for `CCN1CCN(CCC(=O)Nc2cccc(-n3cc(-c4ccncc4)c(-c4ccc(Cl)c(OC)c4)n3)c2)CC1` [Compound 1j]?
A: viability at 1 µM [1]: 98 ± 3.1%; viability at 10 µM [1]: 5 ± 0.8%

Q: For `COc1cc(-c2nn(-c3cccc(NC(=O)CN4CCN(C)CC4)c3)cc2-c2ccncc2)ccc1Cl` [Compound 1c], which viability at 1 µM [1] is on record?
A: 78 ± 3.3%

Q: And the viability at 10 µM [1]?
A: 5 ± 0.8%

Q: What does the source list for `COc1cc(-c2nn(-c3cccc(NC(=O)CN4CCOCC4)c3)cc2-c2ccncc2)ccc1Cl` [Compound 1b]?
A: viability at 1 µM [1]: 92 ± 4.5%; viability at 10 µM [1]: 65 ± 2.8%

Q: Which results are given for `COc1cc(-c2nn(-c3cccc(NC(=O)CCN4CCN(c5ccccc5)CC4)c3)cc2-c2ccncc2)ccc1Cl` [Compound 1k]?
A: inhibition of PGE2 production (in words) [2, 6]: good inhibition values; viability at 1 µM [1]: 89 ± 2.8%; viability at 10 µM [1]: 112 ± 7.6%; cytotoxicity (in words) (RAW 264.7 macrophages [3]): non-cytotoxic; cytotoxicity (in words), LPS-induced RAW 264.7 cell viability (RAW 264.7 macrophages [4]): no cytotoxicity

Q: For `COc1cc(-c2nn(-c3cccc(NC(=O)CN4CCCCC4)c3)cc2-c2ccncc2)ccc1Cl` [Compound 1a], which viability at 1 µM [1] is on record?
A: 99 ± 5.9%

Q: And the viability at 10 µM [1]?
A: 10 ± 1.2%

Q: What does the source list for `COc1cc(-c2nn(-c3cccc(NC(=O)CCN4CCN(Cc5ccccc5)CC4)c3)cc2-c2ccncc2)ccc1Cl` [Compound 1l]?
A: viability at 1 µM [1]: 86 ± 3.7%; viability at 10 µM [1]: 34 ± 1.1%

Q: Which “inhibition of PGE2 production (in words)” value [2, 6] does the source give for `COc1cc(-c2nn(-c3cccc(NC(=O)CN4CCN(Cc5ccccc5)CC4)c3)cc2-c2ccncc2)ccc1Cl` [Compound 1f] here?
A: good inhibition values

Q: What about the IC50 [2, 6] of the same compound?
A: 7.1 µM

Q: What about the IC50 [2, 7] of the same compound?
A: 7.6 µM

Q: What about the inhibition at 5 µM ([2]; Mus musculus, RAW264.7, 5 μM, LPS-induced RAW 264.7 macrophages) of the same compound?
A: 37.4%

Q: And the inhibition at 10 µM [2, 7]?
A: 65.4%

Q: And the viability at 1 µM [1]?
A: 66 ± 1.8%

Q: And the viability at 10 µM [1]?
A: 107 ± 8.5%

Q: What about the “cytotoxicity (in words)” value (RAW 264.7 macrophages [3]) of the same compound?
A: non-cytotoxic

Q: And the “cytotoxicity (in words), LPS-induced RAW 264.7 cell viability” value (RAW 264.7 macrophages [4])?
A: no cytotoxicity

Q: And the “Inhibition Rate (%) of NO production” value ([5]; 10 μM)?
A: 11.06 ± 1.5%

Q: What about the inhibition at 1 µM [5] of the same compound?
A: 0%

Q: And the inhibition at 10 µM [5]?
A: 11.6%
